# Measured values reported in patent publication US20220119354A1, “DIAMINO-SUBSTITUTED PYRIDINES AND PYRIMIDINES AS HERBICIDES” (FMC Corporation, priority 2019, published 2022).
# Experiments:
# Format in all cases: in vivo
# [1] = system: barnyardgrass (Echinochloa crus-galli); assay: Test A preemergence, barnyardgrass; settings: 0 to 100 scale, 0 is no effect, 100 is complete control
# Outline: (§1)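 0–100 visual control rating, ~10 d post-treatment, greenhouse. Pre = directed soil spray on seeded loam/sand; post = spray at 1–2 leaf stage. Surfactant-containing solvent formulation.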
# [2] = system: kochia (Kochia scoparia); assay: Test A preemergence, kochia; settings: 0 to 100 scale, 0 is no effect, 100 is complete control
# Outline: as §1
# [3] = system: ragweed (common ragweed, Ambrosia elatior); assay: Test A preemergence, ragweed; settings: 0 to 100 scale, 0 is no effect, 100 is complete control
# Outline: as §1
# [4] = system: ryegrass, Italian (Lolium multiflorum); assay: Test A preemergence, Italian ryegrass; settings: 0 to 100 scale, 0 is no effect, 100 is complete control
# Outline: as §1
# [5] = system: foxtail, giant (Setaria faberii); assay: Test A preemergence, giant foxtail; settings: 0 to 100 scale, 0 is no effect, 100 is complete control
# Outline: as §1
# [6] = system: pigweed (Amaranthus retroflexus); assay: Test A preemergence, pigweed; settings: 0 to 100 scale, 0 is no effect, 100 is complete control
# Outline: as §1
# [7] = system: barnyardgrass (Echinochloa crus-galli); assay: Test A postemergence, barnyardgrass; settings: 0 to 100 scale, 0 no effect, 100 complete control
# Outline: as §1
# [8] = system: kochia (Kochia scoparia); assay: Test A postemergence, kochia; settings: 0 to 100 scale, 0 no effect, 100 complete control
# Outline: as §1
# [9] = system: ragweed (common ragweed, Ambrosia elatior); assay: Test A postemergence, ragweed; settings: 0 to 100 scale, 0 no effect, 100 complete control
# Outline: as §1
# [10] = system: ryegrass, Italian (Lolium multiflorum); assay: Test A postemergence, Italian ryegrass; settings: 0 to 100 scale, 0 no effect, 100 complete control
# Outline: as §1
# [11] = system: foxtail, giant (Setaria faberii); assay: Test A postemergence, giant foxtail; settings: 0 to 100 scale, 0 no effect, 100 complete control
# Outline: as §1
# [12] = system: pigweed (Amaranthus retroflexus); assay: Test A postemergence, pigweed; settings: 0 to 100 scale, 0 no effect, 100 complete control
# Outline: as §1
# [13] = system: wheat (Triticum aestivum); assay: Test A postemergence, wheat; settings: 0 to 100 scale, 0 no effect, 100 complete control
# Outline: as §1
# [14] = system: corn (Zea mays); assay: Test A postemergence, corn; settings: 0 to 100 scale, 0 no effect, 100 complete control
# Outline: as §1
# [15] = system: blackgrass (Alopecurus myosuroides); assay: Test A postemergence, blackgrass; settings: 0 to 100 scale, 0 no effect, 100 complete control
# Outline: as §1
# [16] = system: galium (catchweed bedstraw, Galium aparine); assay: Test A postemergence, galium; settings: 0 to 100 scale, 0 no effect, 100 complete control
# Outline: as §1
# [17] = system: rice (Oryza sativa); assay: Test B flooded paddy test, rice; settings: Flood, 250 g ai/ha, applied to paddy water, 2-leaf stage, visual evaluation after 13 to 15 d
# Outline: (§2)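 Plants grown to 2-leaf stage. Compounds applied directly into paddy water flooded 3 cm above soil, with that depth kept throughout. After 13–15 d in greenhouse, visual rating versus controls on a 0–100 scale (0 no effect, 100 complete control).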
# [18] = system: sedge, umbrella (small-flower umbrella sedge, Cyperus difformis); assay: Test B flooded paddy test, umbrella sedge; settings: Flood, 250 g ai/ha, applied to paddy water, 2-leaf stage, visual evaluation after 13 to 15 d
# Outline: as §2
# [19] = system: ducksalad (Heteranthera limosa); assay: Test B flooded paddy test, ducksalad; settings: Flood, 250 g ai/ha, applied to paddy water, 2-leaf stage, visual evaluation after 13 to 15 d
# Outline: as §2
# [20] = system: barnyardgrass (Echinochloa crus-galli); assay: Test B flooded paddy test, barnyardgrass; settings: Flood, 250 g ai/ha, applied to paddy water, 2-leaf stage, visual evaluation after 13 to 15 d
# Outline: as §2
SMILES,Barnyardgrass plant response rating ([1]; 125 g ai/ha),Barnyardgrass plant response rating ([1]; 500 g ai/ha),Kochia plant response rating ([2]; 125 g ai/ha),Kochia plant response rating ([2]; 500 g ai/ha),Ragweed plant response rating ([3]; 125 g ai/ha),Ragweed plant response rating ([3]; 500 g ai/ha),"Ryegrass, Italian plant response rating ([4]; 125 g ai/ha)","Ryegrass, Italian plant response rating ([4]; 500 g ai/ha)","Foxtail, Giant plant response rating ([5]; 125 g ai/ha)","Foxtail, Giant plant response rating ([5]; 500 g ai/ha)",Pigweed plant response rating ([6]; 125 g ai/ha),Pigweed plant response rating ([6]; 500 g ai/ha),"Plant response rating, Barnyardgrass ([7]; 125 g ai/ha)","Plant response rating, Barnyardgrass ([7]; 500 g ai/ha)","Plant response rating, Kochia ([8]; 125 g ai/ha)","Plant response rating, Kochia ([8]; 500 g ai/ha)","Plant response rating, Ragweed ([9]; 125 g ai/ha)","Plant response rating, Ragweed ([9]; 500 g ai/ha)","Plant response rating, Ryegrass, Italian ([10]; 125 g ai/ha)","Plant response rating, Ryegrass, Italian ([10]; 500 g ai/ha)",other results
CC(Nc1ncc(C(F)(F)F)c(N)n1)c1cc2c(Cl)cccc2o1 (stereo not drawn) [Compound 100],60,90,90,90,50,100,0,90,90,100,100,100,30,90,60,100,60,100,40,70,"Plant response rating, Foxtail, Giant ([11]; 125 g ai/ha): 20; Plant response rating, Foxtail, Giant ([11]; 500 g ai/ha): 50; Plant response rating, Pigweed ([12]; 125 g ai/ha): 100; Plant response rating, Pigweed ([12]; 500 g ai/ha): 100; Plant response rating, Wheat ([13]; 125 g ai/ha): 50; Plant response rating, Wheat ([13]; 500 g ai/ha): 40; Plant response rating, Corn ([14]; 125 g ai/ha): 0; Plant response rating, Corn ([14]; 500 g ai/ha): 20; Plant response rating, Blackgrass ([15]; 125 g ai/ha): 30; Plant response rating, Blackgrass ([15]; 500 g ai/ha): 70; Plant response rating, Galium ([16]; 125 g ai/ha): 100; Plant response rating, Galium ([16]; 500 g ai/ha): 100; Plant response rating, Rice (0 to 100 scale, 0 is no effect, 100 is complete control) [17]: 0; Plant response rating, Sedge, Umbrella (0 to 100 scale, 0 is no effect, 100 is complete control) [18]: 35; Plant response rating, Ducksalad (0 to 100 scale, 0 is no effect, 100 is complete control) [19]: 20; Plant response rating, Barnyardgrass (0 to 100 scale, 0 is no effect, 100 is complete control) [20]: 45"
C[C@@H](Nc1ncc(C#N)c(N)n1)c1cc2ccccc2s1 [Compound 104],0,0,30,90,60,100,30,60,20,60,50,80,0,20,10,60,20,80,0,70,"Plant response rating, Foxtail, Giant ([11]; 125 g ai/ha): 0; Plant response rating, Foxtail, Giant ([11]; 500 g ai/ha): 20; Plant response rating, Pigweed ([12]; 125 g ai/ha): 80; Plant response rating, Pigweed ([12]; 500 g ai/ha): 100; Plant response rating, Wheat ([13]; 125 g ai/ha): 0; Plant response rating, Wheat ([13]; 500 g ai/ha): 0; Plant response rating, Corn ([14]; 125 g ai/ha): 0; Plant response rating, Corn ([14]; 500 g ai/ha): 0; Plant response rating, Blackgrass ([15]; 125 g ai/ha): 0; Plant response rating, Blackgrass ([15]; 500 g ai/ha): 20; Plant response rating, Galium ([16]; 125 g ai/ha): 40; Plant response rating, Galium ([16]; 500 g ai/ha): 80; Plant response rating, Rice (0 to 100 scale, 0 is no effect, 100 is complete control) [17]: 0; Plant response rating, Sedge, Umbrella (0 to 100 scale, 0 is no effect, 100 is complete control) [18]: 0; Plant response rating, Ducksalad (0 to 100 scale, 0 is no effect, 100 is complete control) [19]: 0; Plant response rating, Barnyardgrass (0 to 100 scale, 0 is no effect, 100 is complete control) [20]: 0"
